{
  "source": "ChEMBL document CHEMBL4813920",
  "about": "“Metronidazole-conjugates: A comprehensive review of recent developments towards synthesis and medicinal perspective” (Eur J Med Chem, 2021)",
  "key": {"Giardia intestinalis [1]": {"test_system": "Giardia intestinalis", "assay": "Antigiardial activity against Giardia intestinalis WB ATCC 30957 incubated for 72 hrs by trypan blue staining based assay", "format": "functional, organism-based", "details": "Giardia duodenalis, WB ATCC 30957, 72 h"}, "Entamoeba histolytica [2]": {"test_system": "Entamoeba histolytica", "assay": "Antiamoebic activity against Entamoeba histolytica HK9 ATCC 30015 incubated for 72 hrs by trypan blue staining based assay", "format": "functional, organism-based", "details": "ATCC 30015, 72 h"}, "Pancreatic alpha-amylase": {"molecular_target": "T1, Pancreatic alpha-amylase (Sus scrofa, UniProt P00690)", "T1 sequence (P00690 whole entry)": "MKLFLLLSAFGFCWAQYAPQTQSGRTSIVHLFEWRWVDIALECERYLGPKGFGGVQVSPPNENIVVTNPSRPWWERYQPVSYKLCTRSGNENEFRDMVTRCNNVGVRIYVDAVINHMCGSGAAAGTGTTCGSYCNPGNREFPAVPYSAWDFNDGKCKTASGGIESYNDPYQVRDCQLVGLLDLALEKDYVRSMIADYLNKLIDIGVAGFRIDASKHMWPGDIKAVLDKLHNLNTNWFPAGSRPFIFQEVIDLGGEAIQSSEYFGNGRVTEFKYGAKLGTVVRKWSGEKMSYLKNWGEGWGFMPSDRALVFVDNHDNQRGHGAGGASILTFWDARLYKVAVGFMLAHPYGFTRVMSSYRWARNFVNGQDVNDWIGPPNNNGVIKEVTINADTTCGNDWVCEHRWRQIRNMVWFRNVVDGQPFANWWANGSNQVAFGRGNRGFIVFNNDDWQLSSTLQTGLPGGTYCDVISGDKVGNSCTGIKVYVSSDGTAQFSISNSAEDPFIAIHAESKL", "assay": "Inhibition of porcine pancreatic alpha-amylase using 1% starch as substrate preincubated for 10 mins followed by substrate addition and measured after 10 mins by absorbance method"}, "Candida albicans": {"test_system": "Candida albicans", "assay": "Antifungal activity against Candida albicans ATCC 10231 incubated for 24 hrs by broth microdilution method", "format": "functional"}, "Escherichia coli": {"test_system": "Escherichia coli", "assay": "Antibacterial activity against Escherichia coli ATCC 8739 incubated for 24 hrs by broth microdilution method", "format": "functional"}, "Staphylococcus aureus": {"test_system": "Staphylococcus aureus", "assay": "Antibacterial activity against Staphylococcus aureus ATCC 6538P incubated for 24 hrs by broth microdilution method", "format": "functional"}, "HEK293": {"test_system": "HEK293", "assay": "Cytotoxicity against HEK293 cells after 24 hrs by MTT assay", "format": "cell-based", "details": "Homo sapiens, HEK293, 24 h"}, "Giardia intestinalis [3]": {"test_system": "Giardia intestinalis", "assay": "Antigiardial activity against Giardia intestinalis WB ATCC 30957 by trypan blue staining based assay", "format": "functional, organism-based", "details": "Giardia duodenalis"}, "Entamoeba histolytica [4]": {"test_system": "Entamoeba histolytica", "assay": "Antiamoebic activity against Entamoeba histolytica HK9 ATCC 30015 by trypan blue staining based assay", "format": "functional, organism-based"}, "Clostridium sporogenes": {"test_system": "Clostridium sporogenes", "assay": "Antimicrobial activity against Clostridium sporogenes ATCC 19404 incubated for 24 hrs by broth microdilution method", "format": "functional"}, "Leishmania braziliensis": {"test_system": "Leishmania braziliensis", "assay": "Antileishmanial activity against promastigote form of Leishmania braziliensis MHOM/BR/75/M2903 measured for 7 days by cell counting method", "format": "functional", "details": "MHOM/BR/75/M2903, 168 h, time 7 day"}, "Leishmania mexicana": {"test_system": "Leishmania mexicana", "assay": "Antileishmanial activity against promastigote form of Leishmania mexicana MHOM/BZ/82/Bel21 measured for 7 days by cell counting method", "format": "functional", "details": "MHOM/BZ/82/Bel21, 168 h, time 7 day"}, "Carbonic anhydrase 9": {"molecular_target": "Carbonic anhydrase 9 (Homo sapiens, UniProt Q16790)", "assay": "Inhibition of recombinant human carbonic anhydrase 9 preincubated with enzyme for 15 mins by phenol red dye based stopped flow CO2 hydration assay"}, "Carbonic anhydrase 2": {"molecular_target": "Carbonic anhydrase 2 (Homo sapiens, UniProt P00918)", "assay": "Inhibition of recombinant human carbonic anhydrase 2 preincubated with enzyme for 15 mins by phenol red dye based stopped flow CO2 hydration assay"}},
  "data": [
    {"smiles": "O=C(O)/C=C/c1ccc([N+](=O)[O-])o1", "values": [
      {"measurement": "IC50", "setting": "Giardia intestinalis [1]", "result": 67500, "unit": "nM"},
      {"measurement": "IC50", "setting": "Entamoeba histolytica [2]", "result": 55700, "unit": "nM"}
    ]},
    {"smiles": "Cc1ncc([N+](=O)[O-])n1CCOCc1ccccc1", "values": [
      {"measurement": "IC50", "setting": "Pancreatic alpha-amylase", "result": "< 2980", "unit": "nM"}
    ]},
    {"smiles": "Cc1ccc(/C=N/CCn2c([N+](=O)[O-])cnc2C)cc1", "values": [
      {"measurement": "MIC", "setting": "Candida albicans", "result": 170, "unit": "µM"}
    ]},
    {"smiles": "COc1ccc(/C=N/CCn2c([N+](=O)[O-])cnc2C)cc1", "values": [
      {"measurement": "MIC", "setting": "Candida albicans", "result": 170, "unit": "µM"}
    ]},
    {"smiles": "Cc1ncc([N+](=O)[O-])n1CC/N=C/c1ccc([N+](=O)[O-])cc1", "values": [
      {"measurement": "MIC", "setting": "Candida albicans", "result": 170, "unit": "µM"}
    ]},
    {"smiles": "Cc1ncc([N+](=O)[O-])n1CC/N=C/c1ccccc1O", "values": [
      {"measurement": "MIC", "setting": "Candida albicans", "result": 170, "unit": "µM"},
      {"measurement": "MIC", "setting": "Escherichia coli", "result": 2240, "unit": "µM"},
      {"measurement": "MIC", "setting": "Staphylococcus aureus", "result": 2000, "unit": "µM"}
    ]},
    {"smiles": "Cc1ncc([N+](=O)[O-])n1CC/N=C/c1cc(Cl)ccc1O", "values": [
      {"measurement": "MIC", "setting": "Candida albicans", "result": 170, "unit": "µM"},
      {"measurement": "MIC", "setting": "Escherichia coli", "result": 760, "unit": "µM"},
      {"measurement": "MIC", "setting": "Staphylococcus aureus", "result": 760, "unit": "µM"}
    ]},
    {"smiles": "Cc1ncc([N+](=O)[O-])n1CC/N=C/c1ccccc1Cl", "values": [
      {"measurement": "MIC", "setting": "Candida albicans", "result": 170, "unit": "µM"}
    ]},
    {"smiles": "Cc1ncc([N+](=O)[O-])n1CC/N=C/c1cccs1", "values": [
      {"measurement": "MIC", "setting": "Candida albicans", "result": 170, "unit": "µM"}
    ]},
    {"smiles": "Cc1ncc([N+](=O)[O-])n1CC/N=C/c1ccc(F)cc1", "values": [
      {"measurement": "MIC", "setting": "Candida albicans", "result": 170, "unit": "µM"}
    ]},
    {"smiles": "Clc1ccc2c(N3CCNCC3)ccnc2c1", "values": [
      {"measurement": "IC50", "setting": "Giardia intestinalis [1]", "result": 88400, "unit": "nM"},
      {"measurement": "IC50", "setting": "Entamoeba histolytica [2]", "result": 94300, "unit": "nM"}
    ]},
    {"smiles": "Cc1ncc([N+](=O)[O-])n1Cc1cn(CCCCCN2C(=O)C(=O)c3cc(Cl)ccc32)nn1", "values": [
      {"measurement": "IC50", "setting": "HEK293", "result": 12100, "unit": "nM"}
    ]},
    {"smiles": "Cc1ncc([N+](=O)[O-])n1CCNC(=O)/C=C/c1ccc([N+](=O)[O-])o1", "values": [
      {"measurement": "IC50", "setting": "Entamoeba histolytica [2]", "result": 5320, "unit": "nM"}
    ]},
    {"smiles": "Cc1ncc([N+](=O)[O-])n1CCN1CCN(c2ccnc3cc(Cl)ccc23)CC1", "values": [
      {"measurement": "IC50", "setting": "Entamoeba histolytica [2]", "result": 960, "unit": "nM"}
    ]},
    {"smiles": "COc1cc(COCCn2c([N+](=O)[O-])cnc2C)cc(OC)c1", "values": [
      {"measurement": "IC50", "setting": "Pancreatic alpha-amylase", "result": "< 2980", "unit": "nM"}
    ]},
    {"smiles": "CCOC(=O)[C@H](CC(=O)O)NC(=O)Cn1c([N+](=O)[O-])cnc1C", "values": [
      {"measurement": "IC50", "setting": "Giardia intestinalis [3]", "result": 2260, "unit": "nM"},
      {"measurement": "IC50", "setting": "Entamoeba histolytica [4]", "result": 2210, "unit": "nM"}
    ]},
    {"smiles": "CCOC(=O)C(CCCCNC(=O)C(C)n1c([N+](=O)[O-])cnc1C)NC(=O)Cn1c([N+](=O)[O-])cnc1C", "note": "(centres undefined)", "values": [
      {"measurement": "IC50", "setting": "Giardia intestinalis [3]", "result": 3840, "unit": "nM"},
      {"measurement": "IC50", "setting": "Entamoeba histolytica [4]", "result": 3950, "unit": "nM"}
    ]},
    {"smiles": "Cc1ncc([N+](=O)[O-])n1CCSc1nnc(-c2ccncc2)n1-c1cccc2ccccc12", "values": [
      {"measurement": "MIC", "setting": "Clostridium sporogenes", "result": 17.1, "unit": "µM"}
    ]},
    {"smiles": "COc1ccc(COCCn2c([N+](=O)[O-])cnc2C)cc1", "values": [
      {"measurement": "IC50", "setting": "Pancreatic alpha-amylase", "result": "< 2980", "unit": "nM"}
    ]},
    {"smiles": "Cn1c(-c2ccncc2)n[nH]c1=S", "values": [
      {"measurement": "IC50", "setting": "Giardia intestinalis [3]", "result": 1560, "unit": "nM"},
      {"measurement": "IC50", "setting": "Entamoeba histolytica [4]", "result": 1370, "unit": "nM"}
    ]},
    {"smiles": "Cc1ccc(COCCn2c([N+](=O)[O-])cnc2C)cc1", "values": [
      {"measurement": "IC50", "setting": "Pancreatic alpha-amylase", "result": "< 2980", "unit": "nM"}
    ]},
    {"smiles": "Cc1ncc([N+](=O)[O-])n1CCSCOC(=O)c1cc(O)c(O)c(O)c1", "values": [
      {"measurement": "LC50", "setting": "Leishmania braziliensis", "result": 4000, "unit": "nM"},
      {"measurement": "LC50", "setting": "Leishmania mexicana", "result": 1000, "unit": "nM"}
    ]},
    {"smiles": "Cc1ncc([N+](=O)[O-])n1CCOc1cccc(/C=N\\c2ccc(S(=O)(=O)Nc3nccs3)cc2)c1", "values": [
      {"measurement": "IC50", "setting": "Carbonic anhydrase 9", "result": 38, "unit": "nM"},
      {"measurement": "IC50", "setting": "Carbonic anhydrase 2", "result": 89, "unit": "nM"}
    ]},
    {"smiles": "Cc1ccccc1COCCn1c([N+](=O)[O-])cnc1C", "values": [
      {"measurement": "IC50", "setting": "Pancreatic alpha-amylase", "result": "< 2980", "unit": "nM"}
    ]},
    {"smiles": "Cc1ncc([N+](=O)[O-])n1CCOCc1cccc([N+](=O)[O-])c1", "values": [
      {"measurement": "IC50", "setting": "Pancreatic alpha-amylase", "result": "< 2980", "unit": "nM"}
    ]},
    {"smiles": "Cc1ncc([N+](=O)[O-])n1CCSCOC(=O)c1ccc(O)c(O)c1", "values": [
      {"measurement": "LC50", "setting": "Leishmania braziliensis", "result": 13000, "unit": "nM"},
      {"measurement": "LC50", "setting": "Leishmania mexicana", "result": 11000, "unit": "nM"}
    ]},
    {"smiles": "Cc1ncc([N+](=O)[O-])n1CCOCc1ccc(Cl)cc1", "values": [
      {"measurement": "IC50", "setting": "Pancreatic alpha-amylase", "result": "< 2980", "unit": "nM"}
    ]}
  ]
}
